Data: patent US11366121B2, “Specific GNAI:GIV interaction screening assays, methods and compositions” (The Regents of the University of California, priority 2017, dated 2022)

What was measured:
[1] = molecular target: GIV:Gαi3 (hGαi3 with FITC-labelled GIV C-terminal peptide KTGSPGSEVVTLQQFLEESNKLTSVQIKSSS, SEQ ID NO: 1) (Homo sapiens, UniProt P08754); test: Inhibition of GIV:Gαi3 interaction by fluorescence polarization (FITC-GIV peptide binding to hGαi3); confirmed hits, FIG. 10
Text: FIG. 10. Further analysis of confirmed hits validate the assay to identify inhibitors of the target.
(§1) FIGS. 11A-11E. A HTS-compatible fluorescence polarization (FP) assay to monitor the GIV:Gαi3 interaction.
(§2) FIG. 14. Kd's determined from fluorescence polarization assays with FITC peptides and hGαi3.
The present invention provides a research tool assay for identifying a specific modulator of GNAI, comprising: (a) combining a drug candidate with GNAI and a C-terminal GIV peptide and determining if the drug candidate inhibits GNAI interaction with the C-terminal GIV peptide; and (b) combining the drug candidate with GNAI and a DAPLE peptide and determining if the drug candidate inhibits GNAI interaction with DAPLE peptide.
In embodiments, the C-terminal GIV peptide comprises the amino acid sequence of SEQ ID NO: 1. In embodiments, the DAPLE peptide comprises the amino acid sequence of SEQ ID NO:2.
In embodiments, the determining steps are detected by fluorescent polarization.
In embodiments, the invention provides an assay and method for screening for drug candidates which act as specific inhibitors against the GNAI:GIV interface. […]
As for the first step in the assay, this small region of 31 aa GIV peptide: […] (SEQ ID NO: 1) was arrived at after careful biochemistry determined that anything less than this is less efficient in binding or activation the G protein, GNAI. […]

GIV:Gαi = GIV:Gαi (Homo sapiens, UniProt P08754); test: GST-pulldown assay confirming hits; assay type: binding; conditions: FIG. 11E
GIV:Gαi, sequence (P08754 whole entry): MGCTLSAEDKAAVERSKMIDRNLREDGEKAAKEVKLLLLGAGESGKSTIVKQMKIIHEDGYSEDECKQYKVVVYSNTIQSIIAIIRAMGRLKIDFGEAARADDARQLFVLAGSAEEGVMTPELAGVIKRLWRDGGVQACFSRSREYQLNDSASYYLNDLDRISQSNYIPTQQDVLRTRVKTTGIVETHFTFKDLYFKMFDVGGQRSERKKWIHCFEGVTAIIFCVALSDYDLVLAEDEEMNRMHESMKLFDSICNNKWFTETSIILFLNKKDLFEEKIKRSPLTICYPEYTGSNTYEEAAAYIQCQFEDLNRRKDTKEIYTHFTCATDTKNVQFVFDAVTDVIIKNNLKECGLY
Experimental: (§3) A pilot screen of the LOPAC1280 library (collection of known bioactive compounds) was conducted and identified lead compounds with inhibitory activity (FIG. 11A). A virtual ligand screen (VLS) of the same library (LOPAC1280) was conducted using in silico docking methods (FIG. 11B). The results from both screens were compared. […] From the virtual screen 7 ‘hits’ (FIG. 11B) were identified. Importantly, 2 of the virtual screen hits matched the results from the FP assay and a third was validated as a GIV:Gαi inhibitor. Compounds were validated by dose response curves (FIG. 11D). […] None of the other 4 hits predicted by the VLS inhibited binding.

GIV:Gαi3 interaction = GIV:Gαi3 interaction (Homo sapiens, UniProt P08754); test: fluorescence polarization (FP) assay monitoring the GIV:Gαi3 interaction, dose response curves; assay type: binding; conditions: FIG. 11D
GIV:Gαi3 interaction, sequence (P08754 whole entry): as above
Experimental: as §1, §2, §3

UniProt P08754, sequence (P08754 whole entry): as above

| Structure (SMILES) | Ki [1] [µM] | confirmation as hit by GST-pulldown (GIV:Gαi) | IC50 (GIV:Gαi3 interaction) [µM] |
| --- | --- | --- | --- |
| Cc1ccc(C(=O)Nc2ccc(S(=O)(=O)O)c3cc(S(=O)(=O)O)cc(S(=O)(=O)O)c23)cc1NC(=O)c1cccc(NC(=O)Nc2cccc(C(=O)Nc3cc(C(=O)Nc4ccc(S(=O)(=O)O)c5cc(S(=O)(=O)O)cc(S(=O)(=O)O)c45)ccc3C)c2)c1 [Suramin, suramin] | 49 |  |  |
| O=C(Nc1cccc(C(=O)Nc2ccc(S(=O)(=O)[O-])c3cc(S(=O)(=O)[O-])cc(S(=O)(=O)[O-])c23)c1)Nc1cccc(C(=O)Nc2ccc(S(=O)(=O)[O-])c3cc(S(=O)(=O)[O-])cc(S(=O)(=O)[O-])c23)c1.[Na+].[Na+].[Na+].[Na+].[Na+].[Na+] [NF023, 8,8′-[carbonylbis(imino-3,1-phenylenecarbonylimino)]bis(1,3,5-naphthalene-trisulfonic acid) hexasodium salt] |  | true hits | ~5 |
| Cc1ccc(C(=O)Nc2ccc(S(=O)(=O)O)c3cc(S(=O)(=O)O)cc(S(=O)(=O)O)c23)cc1NC(=O)c1cccc(NC(=O)Nc2cccc(C(=O)Nc3cc(C(=O)Nc4ccc(S(=O)(=O)O)c5cc(S(=O)(=O)O)cc(S(=O)(=O)O)c45)ccc3C)c2)c1 [suramin] |  |  | ~805 |

Other lines, results leading:

| Ki [1] [µM] | confirmation as hit by GST-pulldown (GIV:Gαi) | IC50 (GIV:Gαi3 interaction) [µM] | Structure (SMILES) |
| --- | --- | --- | --- |
|  | false positive |  | CC[C@@]1(O)C(=O)OCc2c1cc1n(c2=O)Cc2cc3c(CN(C)C)c(O)ccc3nc2-1 [topotecan] |
|  |  | ~5 | O=C(O)C1=CC(=C(c2ccc(O)c(C(=O)O)c2)c2ccc(O)c(C(=O)O)c2)C=CC1=O [ATA, aurintricarboxylic acid] |
